This is an account of results in article PMC12040169 (PLOS Biology, 2025).

SMILES strings stand for the structures.

The nature of this data set: in vitro. The following applies: human, hela cells, % viability.
By viability is commonly meant a read-out of living cells in per cent, often relative to untreated cells. Regarding `Cn1c(=O)n(C)c2cc(CNCc3ccc(C(=O)O)cc3)ccc21` [CBK286538], the viability at 28.5 h, 10 µM was 95.8%. For `NC(=O)c1sc2nc(-c3cccnc3)ccc2c1N` [CBK023645] the value was 66%; for `COc1cncc(-c2cncc(N[C@H](C)c3ccccc3)n2)c1` [CBK065537], 98.9%. In the case of `Cc1sc2ncnc(SCC(=O)Nc3sc4c(c3C#N)CCCC4)c2c1-c1ccccc1` [CBK265938], the viability at 28.5 h, 10 µM came out at 93.3%. The same measure for `O=C(Cc1ccc(Cl)cc1Cl)Nc1ccc(-c2nnc3n2CCCCC3)cc1` [CBK296949]: 94.8%. For `CC(=O)N1C[C@H]2CCCN(S(=O)(=O)c3ccc(Cl)s3)[C@H]2C1` [CBK285293] the value was 105%; for `N#Cc1c(NC(=O)COc2ccc(Cl)cc2)oc(-c2ccccc2)c1-c1ccccc1` [CBK262938], 91.5%.

With `Cn1ccnc1CN(Cc1ccccc1)C1CC(C)(C)NC(C)(C)C1` [CBK283177], the viability at 28.5 h, 10 µM was 93.2%. The same measure for `COc1ccn2c(CCCN(C)C3Cc4ccccc4C3)nc(-c3ccc4c(c3)OCO4)c2c1` [CBK036303]: 100%; for `Cn1ccnc1C(NC(=O)N1CCCC1)c1ccc(F)c(F)c1` (stereo not shown) [CBK283782]: 89%. As for `COC1CCN(C(=O)OCCc2cccnc2)CC1` [CBK200161], the viability at 28.5 h, 10 µM worked out at 89.2%. For `O=S(=O)(NCc1ccc2c(c1)OCO2)c1ccc2c(c1)oc1ccccc12` [CBK268308] the value was 104%.

Consider `Cc1cc(OCC(=O)N2CCCc3c(cnn3C)C2)ccc1Cl` [CBK285277], for which the viability at 28.5 h, 10 µM came out at 93.3%. For `COc1ccc(C2CC(c3ccccc3O)=NN2)cc1` (stereo not shown) [CBK287281] the value was 77.8%. The same measure for `c1cnc(-c2ccsc2)c(OC2CCCCC2)n1` [CBK106764]: 97.6%; for `COC(=O)C1CCCN1CC(=O)NCc1ccc(OCC(N)=O)cc1` (stereo not shown) [CBK304970]: 86.1%; for `COc1ccc(CCNC(=O)N2CCN(c3ccccc3)CC2)cc1` [CBK155199]: 96.8%. For `COc1ccc(C(=O)N2CCC3(CCN(C(=O)c4cccc(C#N)c4)C3)C2)cc1OC` (stereo not shown) [CBK131773] the value was 98.3%; for `CC(C)CCOc1nccnc1-c1ccc2c(c1)OCO2` [CBK106711], 104%; for `Cc1sc(NC(=S)NC(=O)c2ccco2)c(C(N)=O)c1C` [CBK266272], 98.9%. In the case of `CCOC(=O)c1c(-c2ccc(OC)cc2)noc1C(=O)c1ccccc1` [CBK002295], the viability at 28.5 h, 10 µM is 89.7%. For `COc1cc(OC)nc(C(NC(=O)C2CCN(C(=O)c3ccccc3)CC2)c2ccccc2)n1` (stereo not shown) [CBK059650] the value was 99.7%.

Regarding `CN(C1CCCCC1)S(=O)(=O)NCCc1cn2ccccc2n1` [CBK305576], the viability at 28.5 h, 10 µM was determined as 102%. The same measure for `Cc1cc(NC(=O)c2cc(Cl)sc2Cl)no1` [CBK010872]: 84.4%; for `O=C(NCCN1CCC(O)(c2cccc(F)c2)CC1)C1CCCCC1` [CBK283281]: 96.2%; for `CC1(C)CC(=O)C2=C(C1)Nc1nc(SCc3ccc([N+](=O)[O-])cc3)[nH]c(=O)c1C2c1cccnc1` (stereo not shown) [CBK266096]: 108%. For `Cc1ccc(OCC(=O)NC(=S)Nc2cccc(-c3nc4ncccc4o3)c2C)cc1` [CBK263925] the value was 109%. For `Cc1cccc2c(=O)nc(-c3ccccc3Cl)oc12` [CBK152422] the value was 106%. Take `COc1cc(C)c(Nc2cc(-c3ccc(F)c(F)c3)ncn2)cc1OC` [CBK090787]: the viability at 28.5 h, 10 µM was found to be 73.4%. For `CCOc1cccc(C(=O)NN2CCN(C)CC2)c1` [CBK268184] the value was 97.7%. Take `CC(C)C1OC(NCc2ccc(Cl)cc2)=NC1=O` (stereo not shown) [CBK070352]: the viability at 28.5 h, 10 µM amounted to 94.9%. As to `NS(=O)(=O)c1ccc(CNC(=O)c2cc(-c3cccc(Cl)c3)nc3ccccc23)cc1` [CBK267774], the viability at 28.5 h, 10 µM came to 88.7%. As for `COc1ccc(-n2ncc3c2CCCN(C(=O)C2CC2)C3)cc1` [CBK284498], the viability at 28.5 h, 10 µM came to 84.3%. The same measure for `CS(=O)(=O)NC1CCCCC1` [CBK012234]: 89.3%; for `COCC1CCN(C(=O)Nc2ccc(F)c(N3CCCNC3=O)c2)C1` (stereo not shown) [CBK305487]: 100%; for `CCOC(=O)CN1CCCN(c2nccc(OCC3COc4ccccc4O3)n2)CC1` (stereo not shown) [CBK083975]: 100%. The same measure for `CC(C)CCNC(=O)N1CCN(c2ccccc2)CC1` [CBK155203]: 101%.

Regarding `CCC(C)c1ccc(NC(=O)CSc2nc3cccnc3[nH]2)cc1` (stereo not shown) [CBK264349], the viability at 28.5 h, 10 µM turned out to be 86.9%.

Consider `COc1ccc(Nc2ccc(-c3ccc(C(=O)O)cc3)cn2)cc1` [CBK037654], for which the viability at 28.5 h, 10 µM worked out at 95.2%.

For `O=C(O)CC1Cn2ncc(-c3ccccc3)c2NC1=O` (stereo not shown) [CBK288187], the viability at 28.5 h, 10 µM stood at 89.5%. The same measure for `Cc1cc(COc2nc3ccccc3nc2NC[C@@H]2CCCO2)no1` [CBK174027]: 119%; for `CC(NC(=O)C1(Cn2ccnc2)CC1)c1nncn1C(C)C` (stereo not shown) [CBK306682]: 99.5%. For `COC(=O)c1ccc(N2CCN(Cc3nnnn3C3CC3)C(C)C2)cc1` (stereo not shown) [CBK306129] the value was 89.6%; for `COc1ccc(/C=N/NC(=O)Cn2nnnc2N)cc1` [CBK262122], 84.9%; for `Cc1nc(C)c(C(=O)Nc2c(C)noc2C)s1` [CBK200313], 105%. Consider `O=C(NCCN1CCOCC1)c1ccc2nccnc2c1` [CBK268806], for which the viability at 28.5 h, 10 µM amounted to 108%. Take `Cc1cccc(C)c1NC(=O)CCC(=O)OCc1ccccc1` [CBK267158]: the viability at 28.5 h, 10 µM came out at 102%.

For `CCN(CC)CCNC1=Nc2ccccc2CCC1` [CBK263520], the viability at 28.5 h, 10 µM is 94.7%. The same measure for `N=c1n(CCN2CCCCC2)c2ccccc2n1CC(=O)c1cccs1` [CBK278244B]: 85%; for `COc1ncc(-c2nccnc2NCC(C)O)c(OC)n1` (stereo not shown) [CBK036970]: 105%.

For the compound `O=C(NCCCNC(=O)c1ccc(Cl)cc1Cl)c1ccncc1` [CBK269372], the viability at 28.5 h, 10 µM was 89.7%. For `CC(C)CNC(=O)N1CCN(CCN2CCOCC2)CC1` [CBK155826] the value was 88.1%; for `CCC(C(=O)Nc1nccs1)N(C)Cc1n[nH]c2c1CCC2` (stereo not shown) [CBK307685], 99%; for `O=S(=O)(NC1CCCC1)c1cccc(-c2nnc(-c3ccccc3)o2)c1` [CBK265716], 94.6%. As for `COc1ccc2c(c1)C1(CC(=O)N(CC(=O)N(C)C)C1=O)C(=O)N2CCCN(C)S(C)(=O)=O` (stereo not shown) [CBK075889], the viability at 28.5 h, 10 µM came out at 118%.

Turning to `COCCOC1CN(Cc2cn(-c3ccc(Br)cc3)nc2C(C)C)C1` [CBK304852], the viability at 28.5 h, 10 µM turned out to be 87.7%. The same measure for `O=C(Nc1cccc2ccccc12)/C(=C\c1ccco1)NC(=O)c1ccc(Br)cc1` [CBK264587]: 104%. The same measure for `O=C(NCC(=O)N(c1cccc(C(F)(F)F)c1)C(C(=O)NCc1ccco1)c1ccccc1F)c1ccco1` (stereo not shown) [CBK084740]: 96%; for `O=C(NC(Cc1c[nH]c2ccccc12)C(=O)O)c1ccco1` (stereo not shown) [CBK217706]: 92.5%; for `CN1CCC[C@@H]2[C@H]1[C@@H](c1ccc(F)cc1)CN2C(=O)c1ccccn1` [CBK283081]: 103%. For `Oc1ccc(-c2nccnc2NCCc2ccncc2)cc1` [CBK037302] the value was 94.3%; for `Cc1cc(NC(=O)CN(C)C(=O)c2ccc(-n3cc(Br)cn3)cc2)no1` [CBK305575], 100%; for `COc1cc(Br)c(OC)c(C(=O)N(C)Cc2cnn(C)c2)c1` [CBK244011], 102%. As for `O=C(Cc1cccs1)NCCc1c[nH]cn1` [CBK269805], the viability at 28.5 h, 10 µM was found to be 93.2%. For `CCOc1ccc(S(=O)(=O)N2CCCN(CCCC#N)CC2)c2cccnc12` [CBK062935] the value was 98.5%; for `C=CCOc1c(Br)cc(CNc2cccc(C(=O)O)c2)cc1OC` [CBK074581], 97.3%. For `CN(C)[C@H]1CCCC[C@@H]1OC(=O)c1ccc(C(F)(F)F)cc1` [CBK010550F] the value was 90.1%; for `O=C(COc1ccccc1)NC1C(=O)N2C(C(=O)O)=C(Cl)CSC12` (stereo not shown) [CBK266903], 92.7%. For `COc1cccc(C2(NC(=O)Cn3nc(C)cc3C)CCCC2)c1` [CBK283648] the value was 98.1%; for `COc1ccc(C(=O)n2nc(SC)nc2N)cc1` [CBK006853], 100%. Turning to `Cc1cc(=O)n2ccc(CN3CCOCC3)c(O)c2n1` [CBK262899C], the viability at 28.5 h, 10 µM was 114%. The same measure for `CN1C(CC(O)c2ccccc2)CCCC1C(=O)c1ccccc1` (stereo not shown) [CBK268467C]: 98.8%. For `Cc1nc(CN2CCN(c3cccc(C(F)(F)F)n3)CC2)cs1` [CBK304709] the value was 93.9%; for `CCOC(=O)c1c(NC(=O)Cc2ccccc2)sc2c1CCC2` [CBK262309], 88.4%; for `[O-][n+]1cc(-c2ccccc2)[n+]([O-])c2c1CCCC2` [CBK264847], 98.7%. The same measure for `CCOC(=O)c1cnc2c(C)cc(C)cc2c1NCCCN(C)C` [CBK266021]: 76.5%; for `c1cncc(-c2nnc([C@H]3CCNC3)o2)c1` [CBK289396]: 103%; for `N#CC1=C(N)Oc2[nH]nc(-c3ccc4ccccc4c3)c2C1c1cn(CC(N)=O)nc1-c1ccccc1` (stereo not shown) [CBK266624]: 107%. In the case of `COc1cc(CN2CCN(C3CCCCC3)CC2)cc(OC)c1OC` [CBK263407], the viability at 28.5 h, 10 µM amounted to 99.1%. For `CCc1nc(CN2CCCC(NCc3ccc(C(N)=O)cc3)C2)no1` (stereo not shown) [CBK305373] the value was 94.2%.

In the case of `CCN(CC)CCOc1c(C)cccc1Cl` [CBK261950], the viability at 28.5 h, 10 µM stood at 95.9%. For `Cc1csc2ncc(C(=O)Nc3ccc(F)c(Cl)c3)c(=O)n12` [CBK287460] the value was 107%.
